# Measurements published in article PMC6349357, “Computational and experimental analysis of bioactive peptide linear motifs in the integrin adhesome” (PLoS ONE, 2019).
# Marks after values point to notes of the source that are not given here.
# What was measured:
# Format in all cases: cell-based, human (healthy volunteers)
# [1] = system: resting platelets; assay: Platelet aggregation induced by peptide in resting washed platelets (activation); conditions: for Activation: platelet aggregation in resting platelets after 6 minutes incubation with peptide, pal-peptides 20 μM, tat-peptides 50 μM, optical density, aggregometer, mean, n>=3; for Aggregation before TRAP activation, donor h: replicate donor h; for Aggregation before TRAP activation, donor h / Aggregation before TRAP activation, donor i / Aggregation before TRAP activation, donor j: pal 20 μM, tat 50 μM; for Aggregation before TRAP activation, donor i: replicate donor i; for Aggregation before TRAP activation, donor j: replicate donor j; for Activation, 5μM / Activation, 20μM: S3 Table, n=3; for Activation, 5μM: peptide 5 μM; for Activation, 20μM: peptide 20 μM
# Experimental: (§1) Blood was drawn from healthy volunteers into a syringe containing a final volume of 15% Acid Citrate Dextrose (ACD). The blood/ACD mixture was then aliquoted into 15 ml Cellstar tubes, at volumes of 5ml per tube, and centrifuged at 150 rcf for 10 minutes to obtain platelet rich plasma (PRP). PRP was then transferred to a 50ml tube using a pipette. The pH was then adjusted to 6.5. Prostaglandin (PGE1) was then added with a final concentration of 1μM. The PRP was then centrifuged at 750 rcf. After centrifugation the platelet poor plasma (PPP) was discarded and the pellet was resuspended in buffer A (6 mM dextrose, 130 mM NaCl, 9 mM NaHCO3, 10 mM sodium citrate, 10 mM Tris base, 3 mM KCl, 0.81 mM KH2PO4 and 0.9 mM MgCl26H2O, pH 7.4). A platelet concentration of 3x10^5/μl or 1x10^6/μl was obtained by dilution depending on the experiment in which they were used. Platelets were left to rest for 45 minutes and supplemented with 1.8mM calcium chloride prior to use.
# (§2) A platelet concentration of 3x10^5 /μl was used when performing standard aggregations and a concentration of 1x10^6 /μl was used for sample preparation for western blot analysis. The extent of platelet aggregation was measured by quantifying the optical density of the samples using the Bio-Data PAP-8 aggregometer (platelet aggregation profiler, Horsham, PA, USA). A temperature of 37°C was maintained and samples were stirred using magnets spinning at 1100 rpm. 200 μl of washed platelets was added to each aggregation tube. Different volumes of buffer, peptide and TRAP were added to achieve the desired concentrations. Peptide/buffer was added to each well after two minutes. TRAP, with a final concentration depending on the experiment, was added 6 minutes later and data was collected for an additional 7 minutes.
# [2] = system: tyrosine phosphorylation in platelets; assay: Phosphotyrosine western blot (4G10) of platelets treated with peptide; set-up: key to Phospho: R: in resting platelets; A: after TRAP activation; conditions: phosphorylation changes associated with peptide treatment; pal 20 μM, tat 50 μM, TRAP 4 μM
# Experimental: as §2
# After the aggregation step, tubes were immediately placed on ice. 27 μl of lysis buffer was then added and the tube was vortexed vigorously. Lysates were left on ice for one hour and vortexed frequently. Proteins were then centrifuged at 14,000 rcf for 10 minutes to remove debris. Samples were then mixed with 2x sample buffer. 50 μl each sample was added to 50 μl of sample buffer. The protein was then denatured by heating to 95°C for 5 minutes. 10 μl of lysate was kept for protein quantification. All samples and lysates were frozen at -80°C.
# The Bradford assay was then performed on the lysates to determine protein concentration. Protein concentrations were measured using the Bio-Rad DC Protein Assay. A calibration was created using samples containing a known concentration of bovine serum albumin. These were prepared in advance by sequential dilutions with final concentrations of 1.5mg/ml, 1mg/ml, 0.8mg/ml, 0.6mg/ml, 0.4mg/ml, 0.2mg/ml, 0mg/ml. Samples were then dispensed into a 96 well plate and the Bio-Rad DC reagents were added as described in the protocol. Samples were left to rest for 15 minutes and were then read using 690 0.15 mode on the Wallac plate reader. A standard curve was calculated from the standard samples of known concentration and the y = ax+b equation was used to determine the concentration of the other samples.
# Sodium Dodecyl Sulfate Polyacrylamide Gel Electrophoresis (SDS-PAGE) was performed to separate proteins by molecular weight. Polyacrylamide gels were prepared (see Reagents section). Samples or molecular markers were loaded in volumes to give 20 μg of protein. The gels were then run for approximately 80 minutes or until the samples reached the end of the gel. The proteins were then transferred to polyvinylidene difluoride (PVDF) membranes using a Bio-Rad Wet Blot Transfer Cell apparatus. During the transfer the membranes were submerged in 1x transfer buffer (10% 10x transfer buffer, 70% deionised water and 20% methanol). Transfer was performed either overnight at 40 volts at 4°C, or at 100 volts for 1 hour cooled with an ice block. After the transfer the membranes were blocked for 1 hour using 3% bovine albumin serum (BSA) dissolved in TBS-T. Membranes were incubated with 4G10 antibody with a 1:1000 dilution. Unbound primary antibody was washed off with TBS-T three times for 5 minutes each. Membranes were then incubated with anti-mouse IgG secondary antibody (Millipore) with a dilution of 1:30,000. Membranes were submerged in chemiluminescence ECL solution (Thermo Scientific). They were then measured using the western blot developer UVP. One image was taken every 80 seconds for 40 minutes. Numeric data was extracted from selected blots using ImageJ.
# [3] = system: TRAP-activated platelets; assay: Inhibition of TRAP-induced platelet aggregation after pre-incubation with peptide; conditions: for Aggregation after TRAP, peptide alone 1x (A 1x / B 1x) / Aggregation after TRAP, peptide alone 2x (A 2x / B 2x): TRAP 2 μM after 6 minutes pre-incubation, mean n = 3; for Aggregation after TRAP, peptide alone 1x (A 1x / B 1x): 4 μM pal-peptides, 10 μM tat-peptides; for Aggregation after TRAP, peptide alone 2x (A 2x / B 2x): double concentration of 4 μM (pal) / 10 μM (tat); for Aggregation after TRAP activation, donor h: replicate donor h; for Aggregation after TRAP activation, donor h / Aggregation after TRAP activation, donor i / Aggregation after TRAP activation, donor j: pal 20 μM, tat 50 μM; for Aggregation after TRAP activation, donor i: replicate donor i; for Aggregation after TRAP activation, donor j: replicate donor j
# Experimental: as §1, §2
# [4] = platelet aggregation induced by 4 μM TRAP in platelets pre-incubated with peptide (low value = inhibition), pal-peptides 20 μM, tat-peptides 50 μM, mean, n>=3
# [5] = S3 Table, peptide 5 μM, aggregation after TRAP, n=3
# [6] = S3 Table, peptide 20 μM, aggregation after TRAP, n=3
Substance,Activation ([1]; unit assumed),"Aggregation before TRAP activation, donor h [1]","Aggregation before TRAP activation, donor i [1]","Aggregation before TRAP activation, donor j [1]","Aggregation after TRAP, peptide alone 1x (A 1x / B 1x) [3]","Aggregation after TRAP, peptide alone 2x (A 2x / B 2x) [3]","Platelet aggregation remaining after TRAP (low = inhibition) [3, 4]","Aggregation after TRAP activation, donor h ([3]; TRAP 4 μM)","Aggregation after TRAP activation, donor i ([3]; TRAP 4 μM)","Aggregation after TRAP activation, donor j ([3]; TRAP 4 μM)","Activation, 5μM ([1]; unit assumed)","Activation, 20μM ([1]; unit assumed)","Platelet aggregation remaining after TRAP (low = inhibition) [3, 5]","Platelet aggregation remaining after TRAP (low = inhibition) [3, 6]",further results
"TLELDRLMASLSDFRVQNHLP-tat-(NH2) [TGFB1I1_LD-tat, TGFB1I1 LD motif peptide with C-terminal tat]",3%,3,4,4,67.33,65.67,66,74,59,67,–,–,–,–,Phospho [2]: R
"pal-RMKKKDEGSYD-(NH2) [pal-SDC4_JM, N-terminally palmitylated syndecan-4 juxtamembrane peptide]",0%,1,0,2,66.33,64.33,–,4,3,5,2%,1%,–,–,"Activation, donor 14 06 13 ([1]; replicate 14_06_13, SDC4 peptides and controls, 20 μM, unit assumed): 1%; Activation, donor 18_06_13 ([1]; replicate 18_06_13, SDC4 peptides and controls, 20 μM, in % (unit assumed)): 1; Activation, donor 20_06_13 ([1]; replicate 20_06_13, SDC4 peptides and controls, 20 μM, in % (unit assumed)): 2; Activation, donor 20 08 13 ([1]; replicate 20_08_13, SDC4 peptides and controls, 20 μM, unit assumed): 1%; Activation, donor 22_08_13_DONOR1 ([1]; replicate 22_08_13_DONOR1, SDC4 peptides and controls, 20 μM): 0; Activation, donor 22_08_13_DONOR2 ([1]; replicate 22_08_13_DONOR2, SDC4 peptides and controls, 20 μM): 1; Aggregation (inhibition effects of syndecan-derived peptides) ([3]; S2 Table A, peptide 20 μM, TRAP 4 μM, mean, n=6): 45; Summary of effects of SDC4-derived palmitylated peptides and scrambled controls, 20μM ([3]; S2 Table B / S2 Fig, 20 μM, activation of resting platelets and inhibition of aggregation induced by 4 μM TRAP, in words): Inhibitor; Platelet aggregation remaining after TRAP (low = inhibition) ([3]; S3 Table, peptide 5 μM, aggregation after TRAP, n=3, listed as A7p SDC4-JM): 75; Platelet aggregation remaining after TRAP (low = inhibition) ([3]; S3 Table, peptide 5 μM, aggregation after TRAP, n=3, listed as Juxtamembrane (A)): 64; Platelet aggregation remaining after TRAP (low = inhibition) ([3]; S3 Table, peptide 20 μM, aggregation after TRAP, n=3, listed as A7p SDC4-JM): 73; Platelet aggregation remaining after TRAP (low = inhibition) ([3]; S3 Table, peptide 20 μM, aggregation after TRAP, n=3, listed as Juxtamembrane (A)): 45; Platelet aggregation after TRAP activation [3, 4]: 4 ^*; Inhibition, donor 14_06_13 ([3]; replicate 14_06_13, peptide 20 μM, TRAP 4 μM): 72; Inhibition, donor 18_06_13 ([3]; replicate 18_06_13, peptide 20 μM, TRAP 4 μM): 56; Inhibition, donor 20_06_13 ([3]; replicate 20_06_13, peptide 20 μM, TRAP 4 μM): 74; Inhibition, donor 20_08_13 ([3]; replicate 20_08_13, peptide 20 μM, TRAP 4 μM): 7; Platelet aggregation remaining after TRAP (low = inhibition) ([3]; replicate 22_08_13_DONOR1, peptide 20 μM, TRAP 4 μM): 3; Platelet aggregation remaining after TRAP (low = inhibition) ([3]; replicate 22_08_13_DONOR2, peptide 20 μM, TRAP 4 μM): 58"
"pal-TLELDRLMASLS [B23p TGFB1I1-LD, palmitylated TGFB1I1 LD peptide]",–,–,–,–,–,–,–,–,–,–,2%,3%,73,70,–
pal-WEQLLTTIARTINEVENQI [B3p ACTN1-VBS],–,–,–,–,–,–,–,–,–,–,2%,1%,76,73,–
"tat-AGAKLRKVSKQE-(NH2) [tat-VASP, tat peptide from VASP]",3%,3,3,3,–,–,74,75,71,76,–,–,–,–,–
